Assays:
[1] = molecular target: T1, HS1BP3-PX (PX domain, GST-tagged) (Homo sapiens, UniProt Q53T59); assay: liposome floatation (Nycodenz), Coomassie gel; type: binding; details: 5 uM GST-tagged protein, 2 mM total lipid, 20 mM Hepes pH 7.4, 150 mM NaCl, 1 mM MgCl2, 25 °C; PA in liposomes
T1 construct: N-terminal PX domain only, lacks C-terminal part; by primers starts at Met1 (MQSPAVL) and ends ...EFLGTRS; GST- or MBP-tagged, expressed in Escherichia coli
T1 sequence (Q53T59 1-139): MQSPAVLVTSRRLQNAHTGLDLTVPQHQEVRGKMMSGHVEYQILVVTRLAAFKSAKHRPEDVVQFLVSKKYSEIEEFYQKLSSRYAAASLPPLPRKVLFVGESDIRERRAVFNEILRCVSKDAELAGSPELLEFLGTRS

[2] = molecular target: T2, HS1BP3 (full length, GST-tagged) (Homo sapiens, UniProt Q53T59); assay: liposome floatation (Nycodenz), Coomassie gel; type: binding; details: 5 uM GST-tagged protein, 2 mM total lipid, 20 mM Hepes pH 7.4, 150 mM NaCl, 1 mM MgCl2, 25 °C; PA in liposomes
T2 construct: full length, N-terminal PX domain plus unstructured C terminus; GST-tagged (floatation) or MBP-tagged (lipid strips), expressed in Escherichia coli
T2 sequence (Q53T59 1-392): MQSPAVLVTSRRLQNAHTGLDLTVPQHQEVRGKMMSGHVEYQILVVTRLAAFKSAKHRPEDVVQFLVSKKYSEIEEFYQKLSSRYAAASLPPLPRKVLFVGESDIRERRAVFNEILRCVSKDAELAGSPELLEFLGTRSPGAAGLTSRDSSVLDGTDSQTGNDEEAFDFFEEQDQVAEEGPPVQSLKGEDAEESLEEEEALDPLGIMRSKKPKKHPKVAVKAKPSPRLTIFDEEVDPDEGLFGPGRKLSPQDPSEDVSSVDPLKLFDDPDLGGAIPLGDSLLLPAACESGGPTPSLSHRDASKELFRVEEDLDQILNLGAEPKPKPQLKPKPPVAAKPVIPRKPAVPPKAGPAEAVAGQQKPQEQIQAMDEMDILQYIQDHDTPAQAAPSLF

Compound: CCCCCCCC/C=C\CCCCCCCC(=O)OC[C@H](COP(=O)(O)O)OC(=O)CCCCCCC/C=C\CCCCCCCC [dioleyoyl-phosphatidic acid]
- liposome floatation (Nycodenz), Coomassie gel [1]: binding of both HS1BP3 and the PX domain to PA increase with increasing concentrations
- liposome floatation (Nycodenz), Coomassie gel [2]: binding of both HS1BP3 and the PX domain to PA increase with increasing concentrations
